Source: patent publication US8772504B2, “Substituted benzoxazole, benzimidazole, oxazolopyridine and imidazopyridine derivatives as gamma secretase modulators” (Janssen Pharmaceuticals, Inc., priority 2009, dated 2014)
pIC50: −log10 of the molar value.

How the values were obtained:
Format in all cases: cell-based
[1] = test system: Aβtotal; experiment: Screening for γ-secretase-modulating activity, Method 2: Aβtotal Alphalisa on SKNBE2 cell supernatant; details: Method 2, Table 3c, SKNBE2 cells carrying APP 695 wild type, overnight incubation
Description: (§1) Screening was carried out using SKNBE2 cells carrying the APP 695—wild type, grown in Dulbecco's Modified Eagle's Medium/Nutrient mixture F-12 (DMEM/NUT-mix F-12) (HAM) provided by Invitrogen (cat no. 10371-029) containing 5% Serum/Fe supplemented with 1% non-essential amino acids, 1-glutamine 2 mM, Hepes 15 mM, penicillin 50 U/ml (units/ml) en streptomycin 50 μg/ml. Cells were grown to near confluency.
(§2) The screening was performed using a modification of the assay as described in Citron et al (1997) Nature Medicine 3: 67. Briefly, cells were plated in a 384-well plate at 10^4 cells/well in Ultraculture (Lonza, BE12-725F) supplemented with 1% glutamine (Invitrogen, 25030-024), 1% non-essential amino acid (NEAA), penicillin 50 U/ml en streptomycin 50 μg/ml in the presence of test compound at different test concentrations. The cell/compound mixture was incubated overnight at 37° C., 5% CO2. The next day the media were assayed by two sandwich immuno-assays, for Aβ42 and Aβtotal.
(§3) Aβtotal and Aβ42 concentrations were quantified in the cell supernatant using the Aphalisa technology (Perkin Elmer). Alphalisa is a sandwich assay using biotinylated antibody attached to streptavidin coated donorbeads and antibody conjugated to acceptor beads. In the presence of antigen, the beads come into close proximity. The excitation of the donor beads provokes the release of singlet oxygen molecules that trigger a cascade of energy transfer in the acceptor beads, resulting in light emission. To quantify the amount of Aβ42 in the cell supernatant, monoclonal antibody specific to the C-terminus of Aβ42 (JRF/cAβ42/26) was coupled to the receptor beads and biotinylated antibody specific to the N-terminus of Aβ (JRF/AβN/25) was used to react with the donor beads. To quantify the amount of Aβtotal in the cell supernatant, monoclonal antibody specific to the N-terminus of Aβ (JRF/AβN/25) was coupled to the receptor beads and biotinylated antibody specific to the mid region of Aβ (biotinylated 4G8) was used to react with the donor beads.
(§4) To obtain the values reported in Table 3c, the data were calculated as percentage of the maximum amount of amyloid Beta 42 measured in the absence of the test compound. The sigmoidal dose response curves were analyzed using non-linear regression analysis with percentage of the control plotted against the log concentration of the compound. A 4-parameter equation was used to determine the IC50.

[2] = test system: Aβ42; experiment: Screening for γ-secretase-modulating activity, Method 2: Aβ42 Alphalisa on SKNBE2 cell supernatant; details: Method 2, Table 3c, SKNBE2 cells carrying APP 695 wild type, overnight incubation
Description: as §1, §2, §3, §4

[3] = test system: Aβ42; experiment: Screening for γ-secretase-modulating activity, Method 1: Aβ42 sandwich ELISA on SKNBE2 cell media; details: SKNBE2 cells carrying APP 695 wild type
Description: as §1, with “Gibco” for “Invitrogen”, “31330-38)” for “10371-029)”, “acids.” for “acids, 1-glutamine 2 mM, Hepes 15 mM, penicillin 50 U/ml (units/ml) en streptomycin 50 μg/ml.”
(§5) The screening was performed using the assay as described in Citron et al (1997) Nature Medicine 3: 67. Briefly, cells were plated in a 96-well plate at about 10^5 cells/ml one day prior to addition of compounds. Compounds were added to the cells in Ultraculture (Lonza, BE12-725F) supplemented with 1% glutamine (Invitrogen, 25030-024) for 18 hours. The media were assayed by two sandwich ELISAs, for Aβ42 and Aβtotal. Toxicity of the compounds was assayed by WST-1 cell proliferation reagent (Roche, 1 644 807) according to the manufacturer's protocol.
To quantify the amount of Aβ42 in the cell supernatant, commercially available Enzyme-Linked-Immunosorbent-Assay (ELISA) kits were used (Innotest® β-Amyloid(1-42), Innogenetics N.V., Ghent, Belgium). The Aβ42 ELISA was performed essentially according to the manufacturer's protocol. Briefly, the standards (dilutions of synthetic Aβ1-42) were prepared in polypropylene Eppendorf with final concentrations of 8000 down to 3.9 pg/ml (1/2 dilution step). Samples, standards and blanks (100 μl) were added to the anti-Aβ42-coated plate supplied with the kit (the capture antibody selectively recognizes the C-terminal end of the antigen). The plate was allowed to incubate 3 h at 25° C. in order to allow formation of the antibody-amyloid complex. Following this incubation and subsequent wash steps a selective anti-Aβ-antibody conjugate (biotinylated 3D6) was added and incubated for a minimum of 1 hour in order to allow formation of the antibody-Amyloid-antibody-complex. After incubation and appropriate wash steps, a Streptavidine-Peroxidase-Conjugate was added, followed 30 minutes later by an addition of 3,3′,5,5′-tetramethylbenzidine (TMB)/peroxide mixture, resulting in the conversion of the substrate into a coloured product. This reaction was stopped by the addition of sulfuric acid (0.9 N) and the colour intensity was measured by means of photometry with an ELISA-reader with a 450 nm filter.
(§6) To obtain the values reported in Table 3a, the sigmoidal dose response curves were analysed by computerised curve-fitting, with percent of inhibition plotted against compound concentration. A 4-parameter equation (model 205) in XLfit was used to determine the IC50. The top and the bottom of the curve were fixed to 100 and 0, respectively, and the hill slope was fixed to 1. The IC50 represents the concentration of a compound that is required for inhibiting a biological effect by 50% (Here, it is the concentration where Aβ peptide level is reduced by 50%).
as §4, with “3b,” for “3c,”, “IC50. The values reported in Table 3b are averaged IC50 values.” for “IC50.”

[4] = test system: Aβtotal; experiment: Screening for γ-secretase-modulating activity, Method 1: Aβtotal sandwich ELISA on SKNBE2 cell media; details: SKNBE2 cells carrying APP 695 wild type
Description: as §1, with “Gibco” for “Invitrogen”, “31330-38)” for “10371-029)”, “acids.” for “acids, 1-glutamine 2 mM, Hepes 15 mM, penicillin 50 U/ml (units/ml) en streptomycin 50 μg/ml.”
as §5
To quantify the amount of Aβtotal in the cell supernatant, samples and standards were added to a 6E10-coated plate. The plate was allowed to incubate overnight at 4° C. in order to allow formation of the antibody-amyloid complex. Following this incubation and subsequent wash steps a selective anti-Aβ-antibody conjugate (biotinylated 4G8) was added and incubated for a minimum of 1 hour in order to allow formation of the antibody-Amyloid-antibody-complex. After incubation and appropriate wash steps, a Streptavidine-Peroxidase-Conjugate was added, followed 30 minutes later by an addition of Quanta Blu fluorogenic peroxidase substrate according to the manufacturer's instructions (Pierce Corp., Rockford, Ill.).
as §6
as §4, with “3b,” for “3c,”, “IC50. The values reported in Table 3b are averaged IC50 values.” for “IC50.”

[5] = Table 3a, 18 hours, XLfit, top/bottom fixed to 100 and 0, hill slope 1
[6] = Table 3b, non-linear regression of % of control, averaged IC50 values
[7] = Homo sapiens, Table 3b, non-linear regression of % of control, averaged IC50 values

| Structure (SMILES) | pIC50 [1] | pIC50 [2] | pIC50 [3, 6] | pIC50 [4, 6] | other results |
| --- | --- | --- | --- | --- | --- |
| COc1cc(Nc2cccc3c2nc(C(C)c2ccc(Cl)cc2)n3C)ccc1-n1cnc(C)n1 (racemic) [Compound 122] | < 5.00 | 6.43 | – | – | – |
| COc1cc(Nc2cccc3c2nc(Cc2ccc(F)cc2)n3C)ccc1-n1cnc(C)c1 [Compound 81] | – | – | 7.68 | < 6.00 | pIC50 [3, 5]: 7.68; pIC50 [4, 5]: < 6.00 |
| COc1cc(-c2nc3c(Nc4ccc(-n5cncn5)c(F)c4)cccc3n2C)ccc1Cl [Compound 83] | – | – | 7.35 | < 5.52 | pIC50 [3, 5]: 7.33; pIC50 [4, 5]: < 5.52 |
| COc1cc(Nc2cccc3c2nc(-c2cccc(OC)c2Cl)n3C)ccc1-n1cnc(C)n1 [Compound 84] | – | – | 6.85 | < 5.52 | pIC50 [3, 5]: 6.85; pIC50 [4, 5]: < 5.52 |
| Cc1ncnn1-c1ccc(Nc2cccc3c2nc(-c2ccc(F)cc2)n3C(C)C)cc1 [Compound 88] | – | – | 7.14 | < 5.52 | pIC50 [3, 5]: 7.24; pIC50 [4, 5]: < 5.52 |
| COc1cc(Nc2nccc3[nH]c(-c4ccc(F)cc4)nc23)ccc1-n1cnc(C)c1 [Compound 90] | – | – | 7.41 | < 5.30 | pIC50 [3, 5]: 7.41; pIC50 [4, 5]: < 6.00 |
| COc1cc(Nc2nccc3c2nc(-c2ccc(F)cc2F)n3C)ccc1-n1cnc(C)n1 [Compound 98] | – | – | 6.48 | < 5.00 | pIC50 [3, 5]: 6.45; pIC50 [4, 5]: < 5.52 |
| COc1cc(Nc2cccc3c2nc(COc2ccccc2)n3C)ccc1-n1ncnc1C [Compound 99] | – | – | 6.37 | < 5.00 | pIC50 [3, 5]: 6.36; pIC50 [4, 5]: < 5.52 |
| Cc1cc2c(nc(-c3ccc(F)cc3)n2C)c(Nc2ccc(-n3ncnc3C)c(F)c2)n1 [Compound 100] | – | – | 6.18 | < 5.00 | pIC50 [3, 5]: 6.19; pIC50 [4, 5]: < 5.52 |
| COc1cc(Nc2cccc3c2nc(CC(C)C)n3CC(F)(F)F)ccc1-n1cnc(C)n1 [Compound 105] | – | – | 6.89 | 5.60 | pIC50 [3, 5]: 6.89; pIC50 [4, 5]: 5.55 |
| C=C(C)c1cc(Nc2ccc(-n3cnc(C)n3)c(OC)c2)c2nc(-c3ccc(F)cc3)n(C)c2n1 [Compound 109] | – | – | – | – | pIC50 [3, 7]: 7.49; pIC50 [4, 7]: < 5.52 |
| Cc1cn(-c2ccc(Nc3cc(C)nc4c3nc(-c3ccc(F)cc3)n4C)cc2F)cn1 [Compound 112] | – | – | – | – | pIC50 ([1]; Homo sapiens): < 5.00; pIC50 ([2]; Homo sapiens): 7.72 |
| COc1cc(Nc2cc(C)nc3c2nc(-c2ccc(F)cc2)n3C)ccc1-n1cnc(C)n1 [Compound 113] | – | – | – | – | pIC50 ([1]; Homo sapiens): < 5.00; pIC50 ([2]; Homo sapiens): 7.46 |
| COc1cc(Nc2cccc3c2nc(-c2ccc(F)cc2)n3C)ccc1-n1cnc(CO)c1 [Compound 118] | – | – | 7.16 | < 5.52 | – |
| COCc1cn(-c2ccc(Nc3cccc4c3nc(-c3ccc(F)cc3)n4C)cc2OC)cn1 [Compound 119] | – | – | – | – | pIC50 ([1]; Homo sapiens): < 5.00; pIC50 ([2]; Homo sapiens): 7.19 |
| COc1cc(Nc2cccc3c2nc(C2(c4ccc(Cl)cc4)CC2)n3C)ccc1-n1cnc(C)n1 [Compound 123] | < 5.00 | 6.84 | – | – | – |
| Cc1cn(-c2ccc(Nc3cccc4c3nc(-c3ccc(=O)n(C)c3)n4C)cc2F)cn1 [Compound 124] | < 5.00 | 5.41 | – | – | – |

| Structure (SMILES) | pIC50 [1] | pIC50 [2] | pIC50 [3, 6] | pIC50 [4, 6] | other results |
| --- | --- | --- | --- | --- | --- |
| Cc1cn(-c2ccc(Nc3cc(F)cc4c3nc(-c3ccc(F)cc3)n4C(C)C)cc2F)cn1 [Compound 125] | < 5.00 | 7.59 | – | – | – |
| COc1cc(Nc2cccc3c2nc(-c2cccc(Cl)c2)n3C(C)C)ccc1-n1cnc(C)n1 [Compound 126] | < 5.00 | 7.72 | – | – | – |
| CCn1c(-c2cc(F)ccc2F)nc2c(Nc3ccc(-n4cnc(C)n4)c(OC)c3)cc(F)cc21 [Compound 127] | – | – | 7.25 | < 5.52 | – |
| COc1cc(Nc2cc(F)cc3c2nc(-c2ccccc2Cl)n3C)ccc1-n1cnc(C)n1 [Compound 128] | – | – | 7.96 | < 5.52 | – |
| COc1nc(Nc2cccc3c2nc(-c2cc(F)cc(C(F)(F)F)c2)n3C)ccc1-n1cnc(C)c1 [Compound 132] | 5.34 | 8.30 | – | – | – |
| COc1nc(Nc2cccc3c2nc(-c2ccc(F)c(Br)c2)n3C)ccc1-n1cnc(C)c1 [Compound 133] | – | – | – | – | pIC50 ([1]; Homo sapiens): < 5.00; pIC50 ([2]; Homo sapiens): 8.05 |
| COc1cc(-c2nc3c(Nc4ccc(-n5cnc(C)c5)c(OC)n4)cccc3n2C)ccc1Cl [Compound 134] | 5.16 | 8.30 | – | – | – |
| COc1cc(-c2nc3c(Nc4ccc(-n5cnc(C)n5)c(OC)c4)nc(C)cc3n2C)ccc1Cl [Compound 135] | < 5.00 | 8.00 | – | – | – |
| COc1ccccc1-c1nc2c(Nc3ccc(-n4cnc(C)c4)c(F)c3)nc(C)cc2n1C [Compound 138] | < 5.00 | 6.90 | – | – | – |
| Cc1cn(-c2ccc(Nc3nc(C)cc4c3nc(-c3ccccc3Cl)n4C)cc2F)cn1 [Compound 139] | < 5.00 | 7.46 | – | – | – |
| COc1cc(-c2nc3c(Nc4ccc(-n5cnc(C)c5)c(OC)n4)cc(F)cc3n2C)ccc1Cl [Compound 140] | < 5.00 | 8.40 | – | – | – |
| Cc1cn(-c2ccc(Nc3nc(C)cc4c3nc(-c3cccnc3)n4C)cc2F)cn1 [Compound 143] | < 5.00 | 6.26 | – | – | – |
| COc1ccc(-c2nc3c(Nc4ccc(-n5cnc(C)c5)c(F)c4)nc(C)cc3n2C)c(F)c1 [Compound 144] | < 5.00 | 6.84 | – | – | – |
| COc1cc(Nc2nccc3c2nc(-c2ccccc2Cl)n3C)ccc1-n1cnc(C)n1 [Compound 145] | – | – | 6.68 | < 5.52 | – |
| COc1nc(Nc2cccc3c2nc(-c2ccc(=O)n(C)c2)n3C)ccc1-n1cnc(C)c1 [Compound 146] | < 5.00 | 6.46 | – | – | – |
| COc1cc(Nc2nc(C)cc3c2nc(-c2ccccc2Cl)n3C)ccc1-n1cnc(C)n1 [Compound 147] | 5.10 | 7.36 | – | – | – |
| COc1cc(Nc2nc(Cl)cc3c2nc(-c2ccc(F)cc2)n3C)ccc1-n1cnc(C)n1 [Compound 156] | – | – | 7.24 | < 5.52 | – |
